Measured values reported in ChEMBL document CHEMBL4342417, “Design, synthesis and evaluation of novel phenothiazine derivatives as inhibitors of breast cancer stem cells” (Eur J Med Chem, 2019).
Activity calls are given as the source filed them. No cut-off for these calls is given here.

Legend:
SUM-159-PT [1] = test: Antiproliferative activity against human SUM159 cells assessed as reduction in cell viability incubated for 2 days by MTT assay; type: functional, cell-based; details: 48 h
MDA-MB-231 [2] = test: Antiproliferative activity against human MDA-MB-231 cells assessed as reduction in cell viability incubated for 2 days by MTT assay; type: functional, cell-based; details: MDA-MB-231, 48 h
MCF7 [3] = test: Antiproliferative activity against human MCF7 cells assessed as reduction in cell viability incubated for 2 days by MTT assay; type: functional, cell-based; details: MCF7, 48 h
SK-BR-3 [4] = test: Antiproliferative activity against human SKBR3 cells assessed as reduction in cell viability incubated for 2 days by MTT assay; type: functional, cell-based; details: SK-BR-3, 48 h
KG-1a = test: Antiproliferative activity against human KG1a cells assessed as reduction in cell viability incubated for 2 days by MTT assay; type: functional, cell-based; details: 48 h
[5] = Toxicity in zebra fish assessed as survival rate at 250 uM observed for 24 hrs; design: species or system Danio rerio; details: zebrafish
SUM-159-PT [6] = test: Potency index, ratio of IC50 of TFP to IC50 of compound for antiproliferative activity against human SUM159 cells assessed as reduction in cell viability incubated for 2 days by MTT assay; type: functional
MDA-MB-231 [7] = test: Potency index, ratio of IC50 of TFP to IC50 of compound for antiproliferative activity against human MDA-MB-231 cells assessed as reduction in cell viability incubated for 2 days by MTT assay; type: functional
SK-BR-3 [8] = test: Potency index, ratio of IC50 of TFP to IC50 of compound for antiproliferative activity against human SKBR3 cells assessed as reduction in cell viability incubated for 2 days by MTT assay; type: functional
MCF7 [9] = test: Potency index, ratio of IC50 of TFP to IC50 of compound for antiproliferative activity against human MCF7 cells assessed as reduction in cell viability incubated for 2 days by MTT assay; type: functional
MCF7 [10] = test: Inhibition of colony formation in human MCF7 cells at 2.83 uM incubated for 14 days with replacement of medium for every 3 or 4 days by crystal violet staining based visual analysis relative to control; type: functional
SUM-159-PT [11] = test: Inhibition of mammosphere formation in human SUM159 cells assessed as reduction in number of mammosphere at 2 uM incubated for 10 days by microscopic analysis; type: functional
MDA-MB-231 [12] = test: Inhibition of cell migration of human MDA-MB-231 cells at 5.40 uM incubated for 48 hrs by scratch wound healing assay; type: functional, cell-based
MCF7 [13] = test: Inhibition of colony formation in human MCF7 cells at 0.18 uM incubated for 14 days with replacement of medium for every 3 or 4 days by crystal violet staining based visual analysis relative to control; type: functional
MCF7 [14] = test: Inhibition of colony formation in human MCF7 cells at 0.37 uM incubated for 14 days with replacement of medium for every 3 or 4 days by crystal violet staining based visual analysis relative to control; type: functional
MCF7 [15] = test: Inhibition of colony formation in human MCF7 cells at 0.74 uM incubated for 14 days with replacement of medium for every 3 or 4 days by crystal violet staining based visual analysis relative to control; type: functional
MCF7 [16] = test: Inhibition of colony formation in human MCF7 cells incubated for 14 days with replacement of medium for every 3 or 4 days by crystal violet staining based visual analysis; type: functional, cell-based
SUM-159-PT [17] = test: Inhibition of mammosphere formation in human SUM159 cells incubated for 10 days by microscopic analysis; type: functional, cell-based
SUM-159-PT [18] = test: Inhibition of mammosphere formation in human SUM159 cells assessed as reduction in number of mammosphere at 0.5 uM incubated for 10 days by microscopic analysis; type: functional
SUM-159-PT [19] = test: Inhibition of mammosphere formation in human SUM159 cells assessed as reduction in number of mammosphere at 1 uM incubated for 10 days by microscopic analysis; type: functional
MDA-MB-231 [20] = test: Inhibition of cell migration of human MDA-MB-231 cells incubated for 48 hrs by scratch wound healing assay; type: functional, cell-based
[21] = target: Transcription factor p65 (Homo sapiens) (UniProt Q04206); test: Inhibition of LPS-stimulated NF-kappaB-p65 in human MDA-MB-231 cells incubated for 24 hrs by dual luciferase reporter gene assay; type: cell-based
MDA-MB-231 [22] = test: Downregulation of NF-kappaB-p65 expression in human MDA-MB-231 cells incubated for 48 hrs by Western blot analysis; type: functional, cell-based

Sequence of Transcription factor p65 (Homo sapiens) (Q04206 whole entry): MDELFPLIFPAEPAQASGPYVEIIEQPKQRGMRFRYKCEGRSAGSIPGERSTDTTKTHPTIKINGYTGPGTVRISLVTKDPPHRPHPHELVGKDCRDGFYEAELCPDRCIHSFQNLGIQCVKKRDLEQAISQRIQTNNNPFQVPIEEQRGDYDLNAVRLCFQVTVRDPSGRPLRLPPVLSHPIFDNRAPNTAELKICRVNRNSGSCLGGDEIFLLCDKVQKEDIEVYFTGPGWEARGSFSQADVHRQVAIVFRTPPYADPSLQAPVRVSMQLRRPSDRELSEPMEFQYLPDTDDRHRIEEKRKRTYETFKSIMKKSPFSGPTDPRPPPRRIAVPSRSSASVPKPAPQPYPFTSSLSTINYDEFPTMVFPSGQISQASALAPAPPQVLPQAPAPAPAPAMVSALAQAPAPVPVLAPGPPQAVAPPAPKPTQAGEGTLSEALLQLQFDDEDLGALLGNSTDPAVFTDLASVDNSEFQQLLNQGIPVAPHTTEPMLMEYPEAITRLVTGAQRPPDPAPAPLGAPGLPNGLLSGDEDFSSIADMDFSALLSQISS

Row | SMILES | IC50 (SUM-159-PT [1]) [µM] | IC50 (MDA-MB-231 [2]) [µM] | IC50 (MCF7 [3]) [µM] | IC50 (SK-BR-3 [4]) [µM] | other results
1 | CSc1ccc2c(c1)N(CCCN1CCN(C(=O)CCC(=O)OCCOc3no[n+]([O-])c3S(=O)(=O)c3ccccc3)CC1)c1ccccc1S2 | 1.2 | 3.82 | 1.85 | 3.86 | IC50 (KG-1a): 1.2 µM; survival at 24 h, 250 µM [5]: 32.3%
2 | O=C(CCC(=O)N1CCN(CCCN2c3ccccc3Sc3ccccc32)CC1)NCCOc1no[n+]([O-])c1S(=O)(=O)c1ccccc1 | 4.17 | 1.43 | 5.58 | 4.01 | Ratio IC50 (SUM-159-PT [6]): 4; Ratio IC50 (MDA-MB-231 [7]): 4 - 15; Ratio IC50 (SK-BR-3 [8]): 4 - 9
3 | CSc1ccc2c(c1)N(CCCN1CCN(C(=O)CCC(=O)OCCOCCOc3no[n+]([O-])c3S(=O)(=O)c3ccccc3)CC1)c1ccccc1S2 | 4.31 | 3.06 | 11.9 | 3.91 | Ratio IC50 (SUM-159-PT [6]): 4 - 9; Ratio IC50 (MDA-MB-231 [7]): 7; Ratio IC50 (SK-BR-3 [8]): 4
4 | O=C(CCC(=O)N1CCN(CCCN2c3ccccc3Sc3ccccc32)CC1)OCCOCCOc1no[n+]([O-])c1S(=O)(=O)c1ccccc1 | 1.95 | 14.8 | 12.2 | 3.13 | Ratio IC50 (SUM-159-PT [6]): 4 - 9; Ratio IC50 (SK-BR-3 [8]): 4
5 | O=C(CCC(=O)N1CCN(CCCN2c3ccccc3Sc3ccc(C(F)(F)F)cc32)CC1)OCCCCOc1no[n+]([O-])c1S(=O)(=O)c1ccccc1 | 2.93 | 10.2 | 1.35 | 64.6 | Ratio IC50 (SUM-159-PT [6]): 6 - 15; Ratio IC50 (MCF7 [9]): 4 - 13; IC50 (KG-1a): 2.93 µM; survival at 24 h, 250 µM [5]: 19.4%
6 | O=C1CC(c2ccccc2)Oc2cc(O)c(CN3CCN(CCCN4c5ccccc5Sc5ccccc54)CC3)c(O)c21 (configuration not stated) | > 50 | > 50 | > 50 | > 50 | –
7 | CSc1ccc2c(c1)N(CCCN1CCN(C(=O)CCC(=O)OCCCCOc3no[n+]([O-])c3S(=O)(=O)c3ccccc3)CC1)c1ccccc1S2 | 1.14 | 3.62 | 0.84 | 9.72 | Ratio IC50 (SUM-159-PT [6]): 6 - 15; Ratio IC50 (MDA-MB-231 [7]): 6; Ratio IC50 (MCF7 [9]): 4 - 13; IC50 (KG-1a): 1.14 µM; survival at 24 h, 250 µM [5]: 25.8%
8 | O=C1CC(c2ccc(O)cc2)Oc2cc(O)c(CN3CCN(CCCN4c5ccccc5Sc5ccc(C(F)(F)F)cc54)CC3)c(O)c21 (configuration not stated) | 25 | > 50 | > 50 | > 50 | –
9 | CSc1ccc2c(c1)N(CCCN1CCN(C(=O)CCC(=O)OCC#CCOc3no[n+]([O-])c3S(=O)(=O)c3ccccc3)CC1)c1ccccc1S2 | 3.97 | 20.2 | 4.32 | 2.63 | Ratio IC50 (SK-BR-3 [8]): 6
10 | O=C1CC(c2ccc(O)cc2)Oc2cc(O)c(CN3CCN(CCCN4c5ccccc5Sc5ccccc54)CC3)c(O)c21 (configuration not stated) | > 50 | > 50 | > 50 | > 50 | –
11 | COCCN(CCCN1c2ccccc2Sc2ccc(SC)cc21)CCOC | 18.3 | 40.5 | 6.09 | 31.9 | –
12 | COCCN(CCCN1c2ccccc2Sc2ccccc21)CCOC | 35.3 | 45.1 | 29.8 | > 50 | –
13 | O=C1CC(c2ccccc2)Oc2cc(O)c(CN3CCN(CCCN4c5ccccc5Sc5ccc(C(F)(F)F)cc54)CC3)c(O)c21 (configuration not stated) | > 50 | > 50 | > 50 | > 50 | –
14 | CSc1ccc2c(c1)N(CCCN(CCO)CCO)c1ccccc1S2 | 24.6 | 10.3 | 36.7 | 27.2 | –
15 | O=C(CCC(=O)N1CCN(CCCN2c3ccccc3Sc3ccc(C(F)(F)F)cc32)CC1)NCCOc1no[n+]([O-])c1S(=O)(=O)c1ccccc1 | 1.98 | 6.04 | 6.96 | 1.77 | Ratio IC50 (SUM-159-PT [6]): 9; Ratio IC50 (MDA-MB-231 [7]): 4 - 15; Ratio IC50 (SK-BR-3 [8]): 4 - 9
16 | CSc1ccc2c(c1)N(CCC1CCCCN1C)c1ccccc1S2 (configuration not stated) [THIORIDAZINE] | 14.5 | 14.2 | – | 18.2 | IC50 (KG-1a): 6.01 µM
17 | O=C(CCC(=O)N1CCN(CCCN2c3ccccc3Sc3ccc(C(F)(F)F)cc32)CC1)OCC#CCOc1no[n+]([O-])c1S(=O)(=O)c1ccccc1 | 5.44 | 5.89 | 7.26 | 18 | –
18 | O=C(CCC(=O)N1CCN(CCCN2c3ccccc3Sc3ccc(C(F)(F)F)cc32)CC1)OCCOCCOc1no[n+]([O-])c1S(=O)(=O)c1ccccc1 | 3.36 | 3.12 | 3.31 | 10.1 | Ratio IC50 (SUM-159-PT [6]): 4 - 9; Ratio IC50 (MDA-MB-231 [7]): 7; Ratio IC50 (MCF7 [9]): 3
19 | O=C(CCC(=O)N1CCN(CCCN2c3ccccc3Sc3ccccc32)CC1)OCC#CCOc1no[n+]([O-])c1S(=O)(=O)c1ccccc1 | 2.85 | 6.4 | 1.55 | 8.89 | Ratio IC50 (MCF7 [9]): 7
20 | CSc1ccc2c(c1)N(CCCN1CCN(C(=O)CCC(=O)NCCOc3no[n+]([O-])c3S(=O)(=O)c3ccccc3)CC1)c1ccccc1S2 | 9.34 | 3.41 | 12.2 | 2.68 | Ratio IC50 (MDA-MB-231 [7]): 4 - 15; Ratio IC50 (SK-BR-3 [8]): 4 - 9
21 | COCCN(CCCN1c2ccccc2Sc2ccc(C(F)(F)F)cc21)CCOC | 29.9 | > 50 | > 50 | > 50 | –
22 | OCCN(CCO)CCCN1c2ccccc2Sc2ccccc21 | > 50 | > 50 | > 50 | > 50 | –
23 | O=C(CCC(=O)N1CCN(CCCN2c3ccccc3Sc3ccc(C(F)(F)F)cc32)CC1)OCCOc1no[n+]([O-])c1S(=O)(=O)c1ccccc1 | 2.2 | 7.09 | 1.36 | 1.51 | IC50 (KG-1a): 2.2 µM; survival at 24 h, 250 µM [5]: 25.8%
24 | CN1CCN(CCCN2c3ccccc3Sc3ccc(C(F)(F)F)cc32)CC1 [TRIFLUOPERAZINE] | 17 | 21.6 | 11.3 | 15.9 | IC50 (KG-1a): 4.58 µM; inhibition at 2.83 µM (MCF7 [10]): 63.8%; Activity (SUM-159-PT [11]): 12; inhibition (MDA-MB-231 [12]): Active
25 | CSc1ccc2c(c1)N(CCCN1CCN(Cc3c(O)cc4c(c3O)C(=O)CC(c3ccc(O)cc3)O4)CC1)c1ccccc1S2 (configuration not stated) | 32.2 | > 50 | > 50 | > 50 | –
26 | OCCN(CCO)CCCN1c2ccccc2Sc2ccc(C(F)(F)F)cc21 | 46 | 6.09 | 33.6 | 43.2 | –
27 | CSc1ccc2c(c1)N(CCCN1CCN(Cc3c(O)cc4c(c3O)C(=O)CC(c3ccccc3)O4)CC1)c1ccccc1S2 (configuration not stated) | > 50 | > 50 | > 50 | > 50 | –
28 | O=C(CCC(=O)N1CCN(CCCN2c3ccccc3Sc3ccccc32)CC1)OCCCCOc1no[n+]([O-])c1S(=O)(=O)c1ccccc1 | 1.63 | 11.2 | 2.94 | 13.6 | Ratio IC50 (SUM-159-PT [6]): 6 - 15; Ratio IC50 (MCF7 [9]): 4 - 13; IC50 (KG-1a): 1.63 µM; survival at 24 h, 250 µM [5]: 64.5%; inhibition at 0.18 µM (MCF7 [13]): 64.4%; inhibition at 0.37 µM (MCF7 [14]): 33.1%; inhibition at 0.74 µM (MCF7 [15]): 11.6%; inhibition (MCF7 [16]): Dose-dependent effect; inhibition (SUM-159-PT [17]): Dose-dependent effect; Activity (SUM-159-PT [18]): 19; Activity (SUM-159-PT [19]): 8; Activity (SUM-159-PT [11]): 1; inhibition (MDA-MB-231 [20]): Dose-dependent effect; inhibition [21]: Dose-dependent effect; Activity (MDA-MB-231 [22]): Dose-dependent effect
